Test system: Crude diglycosidase
Test: Examination of substrate concentration in the conversion into isoflavone aglycons by diglycosidase using soybean materials;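 also: percent of the isoflavone family total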
Type: biochemical, Penicillium multicolor IAM7153
In short: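 Reaction at 55° C, shaken, pH 4.0 (20 mM acetate), using crude diglycosidase from a 1.88 AU/mL enzyme solution on soy flour, soymilk, defatted soybean or soy protein concentrate at 2, 5, 10, 20 or 30% (w/v). Isoflavone aglycons quantified by HPLC of ethanol extracts at 0, 1, 3, 6 h.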

## COc1cc2c(=O)c(-c3ccc(O)cc3)coc2cc1O [glycitein]
Concentrated soybean protein, substrate concentration 2%, heat treatment of enzyme no, reaction time 0 h
  Decomposition efficiency: ratio of each glycoside/aglycon within its isoflavone family: 11.6%
Concentrated soybean protein, substrate concentration 2%, heat treatment of enzyme no, reaction time 1 h
  Decomposition efficiency: ratio of each glycoside/aglycon within its isoflavone family: 85.3%
Concentrated soybean protein, substrate concentration 2%, heat treatment of enzyme no, reaction time 3 h
  Decomposition efficiency: ratio of each glycoside/aglycon within its isoflavone family: 94.4%
Concentrated soybean protein, substrate concentration 2%, heat treatment of enzyme no, reaction time 6 h
  Decomposition efficiency: ratio of each glycoside/aglycon within its isoflavone family: 100.0%
Concentrated soybean protein, substrate concentration 2%, heat treatment of enzyme yes, reaction time 6 h
  Decomposition efficiency: ratio of each glycoside/aglycon within its isoflavone family: 11.2%
Concentrated soybean protein, substrate concentration 5%, heat treatment of enzyme no, reaction time 0 h
  Decomposition efficiency: ratio of each glycoside/aglycon within its isoflavone family: 11.2%
Concentrated soybean protein, substrate concentration 5%, heat treatment of enzyme no, reaction time 1 h
  Decomposition efficiency: ratio of each glycoside/aglycon within its isoflavone family: 72.4%
Concentrated soybean protein, substrate concentration 5%, heat treatment of enzyme no, reaction time 3 h
  Decomposition efficiency: ratio of each glycoside/aglycon within its isoflavone family: 81.9%
Concentrated soybean protein, substrate concentration 5%, heat treatment of enzyme no, reaction time 6 h
  Decomposition efficiency: ratio of each glycoside/aglycon within its isoflavone family: 87.4%
Concentrated soybean protein, substrate concentration 5%, heat treatment of enzyme yes, reaction time 6 h
  Decomposition efficiency: ratio of each glycoside/aglycon within its isoflavone family: 11.3%
Concentrated soybean protein, substrate concentration 10%, heat treatment of enzyme no, reaction time 0 h
  Decomposition efficiency: ratio of each glycoside/aglycon within its isoflavone family: 11.0%
Concentrated soybean protein, substrate concentration 10%, heat treatment of enzyme no, reaction time 1 h
  Decomposition efficiency: ratio of each glycoside/aglycon within its isoflavone family: 66.8%
Concentrated soybean protein, substrate concentration 10%, heat treatment of enzyme no, reaction time 3 h
  Decomposition efficiency: ratio of each glycoside/aglycon within its isoflavone family: 73.5%
Concentrated soybean protein, substrate concentration 10%, heat treatment of enzyme no, reaction time 6 h
  Decomposition efficiency: ratio of each glycoside/aglycon within its isoflavone family: 75.8%
Concentrated soybean protein, substrate concentration 10%, heat treatment of enzyme yes, reaction time 6 h
  Decomposition efficiency: ratio of each glycoside/aglycon within its isoflavone family: 11.1%
Concentrated soybean protein, substrate concentration 20%, heat treatment of enzyme no, reaction time 0 h
  Decomposition efficiency: ratio of each glycoside/aglycon within its isoflavone family: 10.8%
Concentrated soybean protein, substrate concentration 20%, heat treatment of enzyme no, reaction time 1 h
  Decomposition efficiency: ratio of each glycoside/aglycon within its isoflavone family: 51.2%
Concentrated soybean protein, substrate concentration 20%, heat treatment of enzyme no, reaction time 3 h
  Decomposition efficiency: ratio of each glycoside/aglycon within its isoflavone family: 66.2%
Concentrated soybean protein, substrate concentration 20%, heat treatment of enzyme no, reaction time 6 h
  Decomposition efficiency: ratio of each glycoside/aglycon within its isoflavone family: 69.2%
Concentrated soybean protein, substrate concentration 20%, heat treatment of enzyme yes, reaction time 6 h
  Decomposition efficiency: ratio of each glycoside/aglycon within its isoflavone family: 11.1%
Concentrated soybean protein, substrate concentration 30%, heat treatment of enzyme no, reaction time 0 h
  Decomposition efficiency: ratio of each glycoside/aglycon within its isoflavone family: 8.2%
Concentrated soybean protein, substrate concentration 30%, heat treatment of enzyme no, reaction time 1 h
  Decomposition efficiency: ratio of each glycoside/aglycon within its isoflavone family: 61.5%
Concentrated soybean protein, substrate concentration 30%, heat treatment of enzyme no, reaction time 3 h
  Decomposition efficiency: ratio of each glycoside/aglycon within its isoflavone family: 68.9%
Concentrated soybean protein, substrate concentration 30%, heat treatment of enzyme no, reaction time 6 h
  Decomposition efficiency: ratio of each glycoside/aglycon within its isoflavone family: 71.4%
Concentrated soybean protein, substrate concentration 30%, heat treatment of enzyme yes, reaction time 6 h
  Decomposition efficiency: ratio of each glycoside/aglycon within its isoflavone family: 8.2%
Defatted soybean, substrate concentration 2%, heat treatment of enzyme no, reaction time 0 h
  Decomposition efficiency: ratio of each glycoside/aglycon within its isoflavone family: not detected
Defatted soybean, substrate concentration 2%, heat treatment of enzyme no, reaction time 1 h
  Decomposition efficiency: ratio of each glycoside/aglycon within its isoflavone family: not detected
Defatted soybean, substrate concentration 2%, heat treatment of enzyme no, reaction time 3 h
  Decomposition efficiency: ratio of each glycoside/aglycon within its isoflavone family: not detected
Defatted soybean, substrate concentration 2%, heat treatment of enzyme no, reaction time 6 h
  Decomposition efficiency: ratio of each glycoside/aglycon within its isoflavone family: not detected
Defatted soybean, substrate concentration 2%, heat treatment of enzyme yes, reaction time 6 h
  Decomposition efficiency: ratio of each glycoside/aglycon within its isoflavone family: not detected
Defatted soybean, substrate concentration 5%, heat treatment of enzyme no, reaction time 0 h
  Decomposition efficiency: ratio of each glycoside/aglycon within its isoflavone family: 41.6%
Defatted soybean, substrate concentration 5%, heat treatment of enzyme no, reaction time 1 h
  Decomposition efficiency: ratio of each glycoside/aglycon within its isoflavone family: 58.4%
Defatted soybean, substrate concentration 5%, heat treatment of enzyme no, reaction time 3 h
  Decomposition efficiency: ratio of each glycoside/aglycon within its isoflavone family: 68.2%
Defatted soybean, substrate concentration 5%, heat treatment of enzyme no, reaction time 6 h
  Decomposition efficiency: ratio of each glycoside/aglycon within its isoflavone family: 80.5%
Defatted soybean, substrate concentration 5%, heat treatment of enzyme yes, reaction time 6 h
  Decomposition efficiency: ratio of each glycoside/aglycon within its isoflavone family: 41.5%
Defatted soybean, substrate concentration 10%, heat treatment of enzyme no, reaction time 0 h
  Decomposition efficiency: ratio of each glycoside/aglycon within its isoflavone family: 47.0%
Defatted soybean, substrate concentration 10%, heat treatment of enzyme no, reaction time 1 h
  Decomposition efficiency: ratio of each glycoside/aglycon within its isoflavone family: 45.3%
Defatted soybean, substrate concentration 10%, heat treatment of enzyme no, reaction time 3 h
  Decomposition efficiency: ratio of each glycoside/aglycon within its isoflavone family: 63.4%
Defatted soybean, substrate concentration 10%, heat treatment of enzyme no, reaction time 6 h
  Decomposition efficiency: ratio of each glycoside/aglycon within its isoflavone family: 72.1%
Defatted soybean, substrate concentration 10%, heat treatment of enzyme yes, reaction time 6 h
  Decomposition efficiency: ratio of each glycoside/aglycon within its isoflavone family: 42.4%
Roasted soy flour, substrate concentration 2%, heat treatment of enzyme no, reaction time 0 h
  Decomposition efficiency: ratio of each glycoside/aglycon within its isoflavone family: 16.2%
Roasted soy flour, substrate concentration 2%, heat treatment of enzyme no, reaction time 1 h
  Decomposition efficiency: ratio of each glycoside/aglycon within its isoflavone family: 100.0%
Roasted soy flour, substrate concentration 2%, heat treatment of enzyme no, reaction time 3 h
  Decomposition efficiency: ratio of each glycoside/aglycon within its isoflavone family: 100.0%
Roasted soy flour, substrate concentration 2%, heat treatment of enzyme no, reaction time 6 h
  Decomposition efficiency: ratio of each glycoside/aglycon within its isoflavone family: 100.0%
Roasted soy flour, substrate concentration 2%, heat treatment of enzyme yes, reaction time 6 h
  Decomposition efficiency: ratio of each glycoside/aglycon within its isoflavone family: 12.2%
Roasted soy flour, substrate concentration 5%, heat treatment of enzyme no, reaction time 0 h
  Decomposition efficiency: ratio of each glycoside/aglycon within its isoflavone family: 11.4%
Roasted soy flour, substrate concentration 5%, heat treatment of enzyme no, reaction time 1 h
  Decomposition efficiency: ratio of each glycoside/aglycon within its isoflavone family: 88.2%
Roasted soy flour, substrate concentration 5%, heat treatment of enzyme no, reaction time 3 h
  Decomposition efficiency: ratio of each glycoside/aglycon within its isoflavone family: 92.8%
Roasted soy flour, substrate concentration 5%, heat treatment of enzyme no, reaction time 6 h
  Decomposition efficiency: ratio of each glycoside/aglycon within its isoflavone family: 100.0%
Roasted soy flour, substrate concentration 5%, heat treatment of enzyme yes, reaction time 6 h
  Decomposition efficiency: ratio of each glycoside/aglycon within its isoflavone family: 11.4%
Roasted soy flour, substrate concentration 10%, heat treatment of enzyme no, reaction time 0 h
  Decomposition efficiency: ratio of each glycoside/aglycon within its isoflavone family: 5.5%
Roasted soy flour, substrate concentration 10%, heat treatment of enzyme no, reaction time 1 h
  Decomposition efficiency: ratio of each glycoside/aglycon within its isoflavone family: 83.3%
Roasted soy flour, substrate concentration 10%, heat treatment of enzyme no, reaction time 3 h
  Decomposition efficiency: ratio of each glycoside/aglycon within its isoflavone family: 90.3%
Roasted soy flour, substrate concentration 10%, heat treatment of enzyme no, reaction time 6 h
  Decomposition efficiency: ratio of each glycoside/aglycon within its isoflavone family: 100.0%
Roasted soy flour, substrate concentration 10%, heat treatment of enzyme yes, reaction time 6 h
  Decomposition efficiency: ratio of each glycoside/aglycon within its isoflavone family: 9.9%
Roasted soy flour, substrate concentration 20%, heat treatment of enzyme no, reaction time 0 h
  Decomposition efficiency: ratio of each glycoside/aglycon within its isoflavone family: 8.6%
Roasted soy flour, substrate concentration 20%, heat treatment of enzyme no, reaction time 1 h
  Decomposition efficiency: ratio of each glycoside/aglycon within its isoflavone family: 77.1%
Roasted soy flour, substrate concentration 20%, heat treatment of enzyme no, reaction time 3 h
  Decomposition efficiency: ratio of each glycoside/aglycon within its isoflavone family: 86.2%
Roasted soy flour, substrate concentration 20%, heat treatment of enzyme no, reaction time 6 h
  Decomposition efficiency: ratio of each glycoside/aglycon within its isoflavone family: 90.0%
Roasted soy flour, substrate concentration 20%, heat treatment of enzyme yes, reaction time 6 h
  Decomposition efficiency: ratio of each glycoside/aglycon within its isoflavone family: 9.1%
Roasted soy flour, substrate concentration 30%, heat treatment of enzyme no, reaction time 0 h
  Decomposition efficiency: ratio of each glycoside/aglycon within its isoflavone family: 8.8%
Roasted soy flour, substrate concentration 30%, heat treatment of enzyme no, reaction time 1 h
  Decomposition efficiency: ratio of each glycoside/aglycon within its isoflavone family: 71.6%
Roasted soy flour, substrate concentration 30%, heat treatment of enzyme no, reaction time 3 h
  Decomposition efficiency: ratio of each glycoside/aglycon within its isoflavone family: 75.6%
Roasted soy flour, substrate concentration 30%, heat treatment of enzyme no, reaction time 6 h
  Decomposition efficiency: ratio of each glycoside/aglycon within its isoflavone family: 86.3%
Roasted soy flour, substrate concentration 30%, heat treatment of enzyme yes, reaction time 6 h
  Decomposition efficiency: ratio of each glycoside/aglycon within its isoflavone family: 8.7%
soymilk, substrate concentration 2%, heat treatment of enzyme no, reaction time 0 h
  Decomposition efficiency: ratio of each glycoside/aglycon within its isoflavone family: not detected
soymilk, substrate concentration 2%, heat treatment of enzyme no, reaction time 1 h
  Decomposition efficiency: ratio of each glycoside/aglycon within its isoflavone family: 100.0%
soymilk, substrate concentration 2%, heat treatment of enzyme no, reaction time 3 h
  Decomposition efficiency: ratio of each glycoside/aglycon within its isoflavone family: 100.0%
soymilk, substrate concentration 2%, heat treatment of enzyme no, reaction time 6 h
  Decomposition efficiency: ratio of each glycoside/aglycon within its isoflavone family: 100.0%
soymilk, substrate concentration 2%, heat treatment of enzyme yes, reaction time 6 h
  Decomposition efficiency: ratio of each glycoside/aglycon within its isoflavone family: not detected
soymilk, substrate concentration 5%, heat treatment of enzyme no, reaction time 0 h
  Decomposition efficiency: ratio of each glycoside/aglycon within its isoflavone family: not detected
soymilk, substrate concentration 5%, heat treatment of enzyme no, reaction time 1 h
  Decomposition efficiency: ratio of each glycoside/aglycon within its isoflavone family: 75.4%
soymilk, substrate concentration 5%, heat treatment of enzyme no, reaction time 3 h
  Decomposition efficiency: ratio of each glycoside/aglycon within its isoflavone family: 92.5%
soymilk, substrate concentration 5%, heat treatment of enzyme no, reaction time 6 h
  Decomposition efficiency: ratio of each glycoside/aglycon within its isoflavone family: 100.0%
soymilk, substrate concentration 5%, heat treatment of enzyme yes, reaction time 6 h
  Decomposition efficiency: ratio of each glycoside/aglycon within its isoflavone family: not detected
soymilk, substrate concentration 10%, heat treatment of enzyme no, reaction time 0 h
  Decomposition efficiency: ratio of each glycoside/aglycon within its isoflavone family: 6.4%
soymilk, substrate concentration 10%, heat treatment of enzyme no, reaction time 1 h
  Decomposition efficiency: ratio of each glycoside/aglycon within its isoflavone family: 73.6%
soymilk, substrate concentration 10%, heat treatment of enzyme no, reaction time 3 h
  Decomposition efficiency: ratio of each glycoside/aglycon within its isoflavone family: 89.5%
soymilk, substrate concentration 10%, heat treatment of enzyme no, reaction time 6 h
  Decomposition efficiency: ratio of each glycoside/aglycon within its isoflavone family: 95.8%
soymilk, substrate concentration 10%, heat treatment of enzyme yes, reaction time 6 h
  Decomposition efficiency: ratio of each glycoside/aglycon within its isoflavone family: 6.2%
soymilk, substrate concentration 20%, heat treatment of enzyme no, reaction time 0 h
  Decomposition efficiency: ratio of each glycoside/aglycon within its isoflavone family: 6.3%
soymilk, substrate concentration 20%, heat treatment of enzyme no, reaction time 1 h
  Decomposition efficiency: ratio of each glycoside/aglycon within its isoflavone family: 72.2%
soymilk, substrate concentration 20%, heat treatment of enzyme no, reaction time 3 h
  Decomposition efficiency: ratio of each glycoside/aglycon within its isoflavone family: 90.6%
soymilk, substrate concentration 20%, heat treatment of enzyme no, reaction time 6 h
  Decomposition efficiency: ratio of each glycoside/aglycon within its isoflavone family: 94.1%
soymilk, substrate concentration 20%, heat treatment of enzyme yes, reaction time 6 h
  Decomposition efficiency: ratio of each glycoside/aglycon within its isoflavone family: 5.7%
soymilk, substrate concentration 30%, heat treatment of enzyme no, reaction time 0 h
  Decomposition efficiency: ratio of each glycoside/aglycon within its isoflavone family: 6.1%
soymilk, substrate concentration 30%, heat treatment of enzyme no, reaction time 1 h
  Decomposition efficiency: ratio of each glycoside/aglycon within its isoflavone family: 66.9%
soymilk, substrate concentration 30%, heat treatment of enzyme no, reaction time 3 h
  Decomposition efficiency: ratio of each glycoside/aglycon within its isoflavone family: 84.1%
soymilk, substrate concentration 30%, heat treatment of enzyme no, reaction time 6 h
  Decomposition efficiency: ratio of each glycoside/aglycon within its isoflavone family: 92.3%
soymilk, substrate concentration 30%, heat treatment of enzyme yes, reaction time 6 h
  Decomposition efficiency: ratio of each glycoside/aglycon within its isoflavone family: 6.7%

Reference: US7118895B2, “Process for producing aglycon by using diglycosidase and flavor-improved food containing the aglycon and converting agent to be used in the process” (Amano Enzyme Inc., priority 2000, dated 2006)
